These results are taken from patent US9079936B2, “Derivatives of APF and methods of use” (University of Maryland, Baltimore, priority 2007, dated 2015).

For assay [1], the system named is normal human bladder epithelial cells. Briefly: 3H-thymidine incorporation into explanted normal human bladder epithelial cells. It counts as cell-based. The method, then: Cell proliferation was measured by ^3H-thymidine incorporation into explanted normal human bladder epithelial cells, as previously described (Keay et al., 2001; Keay et al., 2000; Keay et al., 2003a; Keay et al., 2003b; Keay et al., 1996). Briefly, purified native or synthetic APF (or the appropriate mock preparation) was diluted in serum-free MEM (containing only glutamine and antibiotics/antimycotics) and applied to the cells; cell controls received serum-free MEM alone. Cells were then incubated at 37° C. in a 5% CO2 atmosphere for 48 hours. The cells were then labeled with 1 μCi/well ^3H-thymidine for 4 hours, trypsinized, insoluble cell contents harvested and methanol-fixed onto glass fiber filter paper, and the amount of radioactivity incorporated determined. […]
The present example concerns exemplary comprehensive structure-activity relationship (SAR) studies on the peptide portion of antiproliferative factor (APF). […] Antiproliferative activity of each derivative was determined by inhibition of ^3H-thymidine incorporation in primary normal human bladder epithelial cells.
^3H-Thymidine Incorporation. […] The cell contents harvested and methanol-fixed onto glass fiber filter paper, and the amount of radioactivity incorporated determined. […]
On the technique in general: Uptake of a labelled nucleoside into DNA is a usual measure of proliferation.

For assay [2], the system named is bladder epithelial cells from IC/PBS patients. Briefly: IC/PBS cell proliferation (3H-thymidine incorporation). It counts as cell-based, human. As to conditions: for effect on IC cell proliferation: 0.25 uM, 9, 16, 23 and 30 day treatment (Example 12). Here is the method: (§1) IC/PBS cells were incubated with varying concentrations of GalGalNAc-TV(D-proline)AAVVVA (SEQ ID NO:11), wherein such glycosylated peptide is SEQ ID NO:30). Cell proliferation was determined by ^3H-thymidine incorporation; gene expression by quantitative RT-PCR; specific protein expression by Western blot analysis; tight junction formation by confocal immunofluorescence microscopy; and paracellular permeability by ^14C-mannitol and ^3H-inulin flux between confluent cells on Transwell plates. Significance of the difference in mean values between groups was determined by an analysis of variance for each assay.
Study of the effect of APF proline on IC cell proliferation (as measured by thymidine incorporation) following 9, 16, 23, and 30 day treatment with 0.25 uM of the agent.
as §1, with “a derivative shown to inhibit APF activity in normal bladder cells—GalGalNAc-TV-(D-proline)-AAVVVA” for “GalGalNAc-TV(D-proline)AAVVVA”, “NO: 11),” for “NO:11),”, “RT-PCR;” for “RT-PCR; specific protein expression by Western blot analysis;”, “^14H-inulin” for “^3H-inulin”
IC/PBS cells produce APF and as a result have a profound decrease in cell proliferation. […] Cells were treated with 1 nM D-proline APF twice weekly, and thymidine incorporation was determined at 9, 16, 23 and 30 days.
(§2) Cell proliferation was measured by ^3H-thymidine incorporation into explanted normal human bladder epithelial cells, as previously described (Keay et al., 2000; Keay et al., 2001; Keay et al., 2004; Keay et al., 2003; Saitoh et al., 2001). Significant inhibition of ^3H-thymidine incorporation was defined as a mean decrease in counts per minute of greater than 2 standard deviations from the mean of control cells for each plate.

Another assay relates to IC/PBS cell monolayers. Briefly: Paracellular permeability assay (14C-mannitol and 3H-inulin flux, Transwell). It counts as cell-based, human. The following applies: IC/PBS cells, 16 or 30 days treatment. Here is the method: Flux assays were performed using 12-mm Transwell culture plates (Corning Incorporated, Corning, N.Y.), as previously described (Keay et al., 2000). Cells were plated at 4×10^5 cells/cm^2 on the insert and grown in DMEM-F12 medium containing 10% heat-inactivated FBS, 1% antibiotic solution, 1% L-glutamine, 0.25 units/ml insulin (all from Sigma, St. Louis, Mo.), and 5 ng/ml hEGF (R & D Systems, Minneapolis, Minn.) to establish tight monolayers. On day 2, the medium was changed to MEM (GIBCO/Invitrogen) containing 1% antibiotic/antimycotic solution and 1% L-glutamine (Sigma).
Two different membrane impermeable molecules, [^14C]-mannitol (molecular weight: 184 Daltons) and [3H]-inulin (molecular weight: 5,200 Daltons), served as paracellular tracers. At the beginning of the flux assay, both sides of the bathing wells of Transwell filters were replaced with fresh medium containing either 5 mM unlabeled mannitol or 0.5 mM unlabeled inulin. Each tracer was added at a final concentration of 3.6 nM for [^14C]-mannitol and 0.36 nM for [^3H]-inulin to the apical bathing wells. The basal bathing well contained the same medium as the apical compartment but without tracers. Flux assays were performed at 37° C.; basal medium was collected at 0.5-6 hrs after addition of [^14C]-mannitol or [^3H]-inulin, and the amount of radioactivity determined using a Beckman LS 5000 scintillation counter. Results were expressed as percentage of total counts for each tracer.
(§3) For the permeability assay, the percentage of total counts in the basal medium was determined in four experiments (using different IC/PBS cell donors), and expressed as mean±standard deviation. Crossover point analysis was performed for qRT-PCR data, and expression of each gene was quantified relative to β-actin; this value was expressed as mean±standard error of the mean for duplicate runs performed on two separate occasions. ^3H-thymidine incorporation was determined in triplicate on two separate occasions, and the CPM expressed as mean±standard deviation.

For assay [3], the system named is tight junction protein gene expression in IC/PBS cells. Briefly: qRT-PCR for tight junction gene expression. Format: cell-based, human. The following applies: 16 and 30 day treatment, relative to β-actin. The method, then: Total RNA was extracted from IC/PBS and normal control epithelial cell explants using the RNEasy Plus Mini Kit (Qiagen) according to the manufacturer's protocol. Quantitative real time RT-PCR for tight junction gene expression was performed using Quantitect Primers (Qiagen), SYBR Green RT-PCR kit reagents (Qiagen), and a Roche 480 Light-Cycler. Samples were tested in triplicate runs, and specific mRNA levels quantified and compared to mRNA levels for β-actin using LightCycler 480 real-time PCR analysis software (version 1.5).
as §3
(In general: Quantitative PCR measures a nucleic acid by following its amplification.)

The subject of assay [4] is APF activity in normal bladder epithelial cells. Briefly: Inhibition of APF antiproliferative activity in APF-treated normal bladder cells (3H-thymidine incorporation). It counts as cell-based, human. The following applies: pretreatment with derivative, then active synthetic APF (as-APF), IC/PBS and/or normal bladder cells. Here is the method:
as §1
as §1, with “a derivative shown to inhibit APF activity in normal bladder cells—GalGalNAc-TV-(D-proline)-AAVVVA” for “GalGalNAc-TV(D-proline)AAVVVA”, “NO: 11),” for “NO:11),”, “RT-PCR;” for “RT-PCR; specific protein expression by Western blot analysis;”, “^14H-inulin” for “^3H-inulin”
as §2

For assay [5], the system named is tight junction proteins in IC/PBS cells. Briefly: Immunofluorescence confocal microscopy of tight junction proteins. It counts as cell-based, human. The following applies: IC/PBS cell explants treated for 9 days. Here is the method: For immunofluorescence, cells were fixed using ethanol/acetone (1:1) for 15 minutes at room temperature, washed 3 times with PBS and incubated with fluorescein isothiocyanate (FITC) labeled mouse monoclonal anti-ZO-1 (5 μg/ml); or unlabeled mouse monoclonal anti-occludin (5 μg/ml) or anti-claudin 4 (3 μg/ml); or unlabeled rabbit polyclonal anti-claudin 1 (3 μg/ml), anti-claudin 8 (8 μg/ml), or anti-claudin 12 (5 μg/ml) antibodies (all from Zymed, South San Francisco, Calif.) diluted in PBS for 2 hours at 37 C. Cells incubated with unlabeled mouse monoclonal primary antibodies were then washed 3 times with PBS and further incubated with FITC-labeled secondary goat anti-mouse IgG antibody (Zymed) diluted in PBS, while cells incubated with unlabeled rabbit polyclonal primary antibodies were washed and further incubated for 2 hours at 37 C with goat anti-rabbit IgG (Zymed) diluted in PBS. Following an additional 5 washes with PBS, the cells were examined using an LSM510 confocal laser scanning microscope (Carl Zeiss, Oberkochen, Germany). Negative controls for the method included cells incubated without primary and secondary antibodies as well as cells incubated with secondary antibody alone.

The mark [6] stands for this setting: listed as GalGalNAc-TV(D-proline)AAVVVA.
Setting [7] is: listed as GalGalNAc-TV-(D-proline)-AAVVVA.

“Also recorded” adds a separate entry of the source.

For the substance “GalGalNAc-TV(D-proline)AAVVVA [D-proline APF]”, the antiproliferative activity result in assay [1] (3H-thymidine incorporation, normal bladder epithelial cells) is on record as “did not have any intrinsic antiproliferative activity”. In addition, the “antiproliferative activity normalized to as-APF” value in assay [1] (inactive = no significant activity at <25 μM (cut-off limit of the assay)) was “inactive”. In addition, in assay [2] (1 nM twice weekly, thymidine incorporation at 9, 16, 23 and 30 days (Example 14)), the “stimulation of IC/PBS cell proliferation” value was “stimulated IC/PBS cell proliferation by Day 16”. Besides, the “effect on IC cell proliferation” value was “significantly stimulated at both time points” in assay [2] and “Optimal stimulation of IC cell proliferation was observed up to the level of normal bladder cell proliferation” in assay [2] (listed as APF proline). For the same substance, the “paracellular permeability (14C-mannitol, 3H-inulin)” value in the assay on IC/PBS cell monolayers is on record as “normalized; also recorded: significantly decreased paracellular permeability of both tracer molecules”; with IC/PBS cell monolayers (setting [6]) it was “decrease permeability of IC/PBS cells”; in the assay on IC/PBS cell monolayers (listed as GalGalNAc-TV-(D-Proline)-AAVVVA), “significantly decrease permeability of IC/PBS cells”; in the assay with IC/PBS cell monolayers (setting [7]), “normalize IC/PBS cell paracellular permeability”. In addition, the “tight junction protein mRNA expression” value in assay [3] is “stimulation of tight junction protein expression; also recorded: stimulate mRNA expression for ZO-1, occludin, and specific claudin (1, 4, 8, and 12)”; in assay [3] (setting [6]), “significantly increase zonula occludens-1 and claudin 1, 4 and 8 expression”; in assay [3] (setting [7]), “significantly increased ZO-1, occludin, and claudin 1, 4, 8, and 12 expression”. The “blocking of APF antiproliferative activity” value is “inhibited this activity in nanomolar concentrations in a dose-dependent manner” in assay [4], “blocked APF activity” in assay [4] (setting [6]) and “blocked APF antiproliferative activity; also recorded: blocks APF's inhibitory effects on cell proliferation” in assay [4] (setting [7]). The “tight junction protein expression and localization” value in assay [5] is “also increased”.
